The results in this text go back to ChEMBL document CHEMBL3860106, “Identification of the Binding Site of Chroman-4-one-Based Sirtuin 2-Selective Inhibitors using Photoaffinity Labeling in Combination with Tandem Mass Spectrometry” (J Med Chem, 2016).

Series [1] in a line: Drug metabolism assessed as compound formation using compound 4 irradiated with 365 nm 23 mW/cm2 UV light using high-power light-emitting diode by UV/vis spectroscopy. Format: ADME.
For series [2], the target named is T1, NAD-dependent protein deacetylase sirtuin-2 (Homo sapiens) (UniProt Q8IXJ6).
T1 sequence (whole entry): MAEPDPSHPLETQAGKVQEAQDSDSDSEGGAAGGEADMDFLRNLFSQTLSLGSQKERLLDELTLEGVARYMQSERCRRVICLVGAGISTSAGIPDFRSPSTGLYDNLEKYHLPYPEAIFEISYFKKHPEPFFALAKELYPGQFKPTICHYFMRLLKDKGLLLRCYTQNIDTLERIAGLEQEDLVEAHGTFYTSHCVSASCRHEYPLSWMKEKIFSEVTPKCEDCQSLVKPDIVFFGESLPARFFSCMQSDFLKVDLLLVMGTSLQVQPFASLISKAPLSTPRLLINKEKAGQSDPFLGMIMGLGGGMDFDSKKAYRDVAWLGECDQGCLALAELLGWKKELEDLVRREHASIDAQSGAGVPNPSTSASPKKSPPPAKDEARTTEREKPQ
Nature of the series: Inhibition of SIRT2 (unknown origin) at 200 uM by fluorescence-based assay.

Series [3] addresses T1, NAD-dependent protein deacetylase sirtuin-2 (Homo sapiens). Nature of the series: Binding affinity to recombinant SIRT2 (unknown origin) assessed as detection of tryptic peptide with amino acid sequence 175-IAGLEQEDLVEAHGTFYTSHCVSASCRHEYPLSWMK-210 at 400 uM in presence of NAD+ and peptide substrate by LC-MS/MS method.
Series [4] addresses T2, NAD-dependent protein deacetylase sirtuin-2 (Homo sapiens, UniProt Q8IXJ6).
T2 sequence (Q8IXJ6 whole entry): T1 sequence (whole entry)
The series can be described thus: Inhibition of SIRT2 (unknown origin) by fluorescence-based assay.

Series [5] is described as follows: Photo activation assessed as [photo-decomposition irradiated with 365 nm 23 mW/cm2 UV light using high-power light-emitting diode by 1H and 19F NMR spectroscopy. The series is classed as physicochemical.
Series [6] deals with T1, NAD-dependent protein deacetylase sirtuin-2 (Homo sapiens). Nature of the series: Binding affinity to recombinant SIRT2 (unknown origin) assessed as photoaffinity labeling at H187 residue at 400 uM in presence of NAD+ and peptide substrate by LC-MS/MS method.

pIC50: −log10 of the molar value. Activity calls are given as the source filed them. The rule behind the calls is not given here.

For the molecule `CCCCCC1CC(=O)c2cc(C(=[N+]=[N-])C(F)(F)F)ccc2O1` (configuration not stated), in series [1], the Drug uptake result is reported as “Metabolite_Detected”.
Take `CCCCCC1CC(=O)c2cc(N=[N+]=[N-])ccc2O1` (configuration not stated): the inhibition in series [2] worked out at 51%.
Consider `CCCCCC1CC(=O)c2cc(C3(C(F)(F)F)N=N3)ccc2O1` (configuration not stated), for which the outcome in series [3] and in series [6] was Active. The same molecule showed a negative-log IC50 (pIC50) in series [4] of 5.09. Further, in series [5], the Drug metabolism entry was “Metabolite_Detected”. In series [2], this molecule registered an inhibition of 78%.

A word on the inhibition: it is the share of the control response that was lost under treatment. A higher inhibition goes with strong suppression. The term pIC50 denotes the IC50 on a negative log10 scale, so that one unit is a factor of ten. A higher pIC50 goes with a small IC50.
